Experiments:
Type in all cases: in vivo
[1] = system: upland rice (Oryza sp., var. Tebonnet, RICE); assay: Post-emerge test, crop safety; conditions: post-emerge, 14 days after application, rating scale 0-100
Method in brief: (§1)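 Rating: 0–100 visual injury, 14 DAA. Application: acetone, 187 l/ha, 15–1000 g ai/ha, flat-fan track sprayer with nozzle 40–45 cm above soil or canopy. Post-emerge runs used 0.25% v/v surfactant on 2–3 leaf plants.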

[2] = system: field corn (Zea mays L., var. Dekalb 535, CORN); assay: Post-emerge test, crop safety; conditions: post-emerge, 14 days after application, rating scale 0-100
Method in brief: as §1

[3] = system: upland rice (Oryza sp., var. Tebonnet, RICE); assay: Pre-emerge test, crop safety; conditions: crop damage rating 0-100, 14 days after application
Method in brief: (§2)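 Plants grown in 10 cm pots of sandy loam mix received acetone-dissolved compounds through a moving flat-fan nozzle. Doses ranged from 15 to 1000 g ai/ha. Pre-emerge pots were seeded one day earlier, post-emerge pots 8–21 days earlier. Fourteen days on, each pot was graded 0–100 for damage.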

[4] = system: field corn (Zea mays L., var. Dekalb 535, CORN); assay: Pre-emerge test, crop safety; conditions: crop damage rating 0-100, 14 days after application
Method in brief: as §2

[5] = system: redroot pigweed (Amaranthus retroflexus, AMARE); assay: Pre-emerge test, greenhouse herbicide activity screening; conditions: phytotoxicity rating 0-100, 14 days after application
Method in brief: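 Compounds in acetone were track-sprayed at 187 l/ha, 15–1000 g ai/ha, onto sandy loam pots. Pre-emerge seeds were sown one day before spraying, with surface watering afterwards. Post-emerge plants were at the 2–3 leaf stage and sprayed with 0.25% v/v non-ionic surfactant. Injury was rated 0–100 at 14 days.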

[6] = system: large crabgrass (Digitaria sanguinalis, DIGSA); assay: Post-emerge test, greenhouse herbicide activity screening; conditions: post-emerge, 14 days after application, rating scale 0-100
Description: (§3) A standard greenhouse herbicide activity screening system was used to evaluate the herbicidal efficacy and crop safety of these test compounds. Seven broadleaf weed species including redroot pigweed (Amaranthus retroflexus, AMARE, velvetleaf (Abutilon theophrasti, ABUTH), sicklepod (Cassia obtusifolia, CASOB), ivyleaf morningglory (Ipomoea hederacea, IPOHE), lambsquarters (Chenopodium album, CHEAL), common ragweed (Ambrosia artemisizfolia L., AMBEL), and cocklebur (Xanthium strumarium, XANST) were used as test species. Four grass weed species including green foxtail (Setaria viridis, SETVI), barnyardgrass (Echinochloa crus-galli, ECHCG), johnsongrass (Sorghum halepense, SORHA), and large crabgrass (Digitaria sanguinalis, DIGSA) were also used. In addition, three crop species, field corn (Zea mays L., var. Dekalb 535, CORN), soybean (Glycine max L., var. Pella 86, SOY), and is upland rice (Oryza sp., var. Tebonnet, RICE) were included.
(§4) All plants were grown in 10 cm square plastic pots which were filled with a sandy loam soil mix. For pre-emerge tests, seeds were planted one day prior to application of the test compounds. For post-emerge tests, seeds were planted 8-21 days prior to the test to allow emergence and good foliage development prior to application of the test substances. At the time of the post-emerge application, plants of all species were usually at the 2-3 leaf stage of development.
(§5) All test compounds Were dissolved in acetone and applied to the test units in a volume of 187 l /ha. Test materials were applied at rates ranging from 15 g ai/ha to 1000 g ai/ha using a track sprayer equipped with a TJ8001E even flow flat fan spray nozzle. Plants were arranged on a shelf so that the top of the canopy (post-emerge) or top of the soil surface (pre-emerge) was 40-45 cm below the nozzle. Pressurized air was used to force the test solution through the nozzle as it was mechanically advanced (via electrically driven chain drive) over the top of all test plants/pots. This application simulates a typical commercial field herbicide application.
(§6) In the post-emerge test, a commercial non-ionic surfactant was also included (0.25% v/v) to enhance wetting of the leaf surfaces of target plants. Immediately after application, test units of the pre-emerge applications were watered at the soil surface to incorporate the test materials. Subsequently, these test units were bottom-watered. Post-emerge test units were always bottom-watered.
(§7) At 14 days after application of the test materials, phytotoxicity ratings were recorded. A rating scale of 0-100 was used as previously described in Research Methods in Weed Science, 2nd edition, B. Truelove, Ed., Southern Weed Science Society, Auburn University, Auburn, Ala. 1977. Briefly, “0” corresponds to no damage and “100” corresponds to complete death of all plants in the test unit. This scale was used both to determine efficacy against weed species and damage to crop species. Herbicide activity data for various compounds of this invention, which are shown by compound No. in Tables 1-8, are shown in Tables 11 and 12.

[7] = system: lambsquarters (Chenopodium album, CHEAL); assay: as above; conditions: post-emerge, 14 days after application, rating scale 0-100
Description: as §3, §4, §5, §6, §7

[8] = system: ivyleaf morningglory (Ipomoea hederacea, IPOHE); assay: as above; conditions: post-emerge, 14 days after application, rating scale 0-100
Description: as §3, §4, §5, §6, §7

[9] = system: sicklepod (Cassia obtusifolia, CASOB); assay: as above; conditions: post-emerge, 14 days after application, rating scale 0-100
Description: as §3, §4, §5, §6, §7

[10] = system: barnyardgrass (Echinochloa crus-galli, ECHCG); assay: as above; conditions: post-emerge, 14 days after application, rating scale 0-100
Description: as §3, §4, §5, §6, §7

[11] = system: redroot pigweed (Amaranthus retroflexus, AMARE); assay: as above; conditions: post-emerge, 14 days after application
Description: as §3, §4, §5, §6, §7

[12] = system: green foxtail (Setaria viridis, SETVI); assay: as above; conditions: post-emerge, 14 days after application, rating scale 0-100
Description: as §3, §4, §5, §6, §7

[13] = system: velvetleaf (Abutilon theophrasti, ABUTH); assay: as above; conditions: post-emerge, 14 days after application, rating scale 0-100
Description: as §3, §4, §5, §6, §7

[14] = system: large crabgrass (Digitaria sanguinalis, DIGSA); assay: Pre-emerge test, greenhouse herbicide activity screening; conditions: phytotoxicity rating 0-100, 14 days after application
Description: as §3, §4, §5, §6, §7

[15] = system: lambsquarters (Chenopodium album, CHEAL); assay: as above; conditions: phytotoxicity rating 0-100, 14 days after application
Description: as §3, §4, §5, §6, §7

[16] = system: ivyleaf morningglory (Ipomoea hederacea, IPOHE); assay: as above; conditions: phytotoxicity rating 0-100, 14 days after application
Description: as §3, §4, §5, §6, §7

[17] = system: sicklepod (Cassia obtusifolia, CASOB); assay: as above; conditions: phytotoxicity rating 0-100, 14 days after application
Description: as §3, §4, §5, §6, §7

[18] = system: barnyardgrass (Echinochloa crus-galli, ECHCG); assay: as above; conditions: phytotoxicity rating 0-100, 14 days after application
Description: as §3, §4, §5, §6, §7

[19] = system: green foxtail (Setaria viridis, SETVI); assay: as above; conditions: phytotoxicity rating 0-100, 14 days after application
Description: as §3, §4, §5, §6, §7

[20] = system: velvetleaf (Abutilon theophrasti, ABUTH); assay: as above; conditions: phytotoxicity rating 0-100, 14 days after application
Description: as §3, §4, §5, §6, §7

COc1c(Cl)cc(F)c(-n2c(=O)cc(C(F)(F)F)n(C)c2=O)c1NC(=O)OCc1cc(C)ccc1C [4-38]
80: phytotoxicity rating SETVI ([12]; 250 g ai/ha) | Pre-emerge Herbicidal Activity ABUTH ([20]; 63 g ai/ha)
30: Pre-emerge Herbicidal Activity CASOB ([17]; 63 g ai/ha) | Pre-emerge Herbicidal Activity ECHCG ([18]; 63 g ai/ha)
85: phytotoxicity rating CORN (crop damage) ([2]; 250 g ai/ha)
100: Pre-emerge Herbicidal Activity AMARE ([5]; 63 g ai/ha) | Pre-emerge Herbicidal Activity AMARE ([5]; 250 g ai/ha) | phytotoxicity rating CHEAL ([7]; 63 g ai/ha) | phytotoxicity rating CHEAL ([7]; 250 g ai/ha) | phytotoxicity rating IPOHE ([8]; 63 g ai/ha) | phytotoxicity rating IPOHE ([8]; 250 g ai/ha) | phytotoxicity rating CASOB ([9]; 250 g ai/ha) | phytotoxicity rating AMARE ([11]; 63 g ai/ha, rating scale 0-100 (0 no damage, 100 complete death)) | phytotoxicity rating AMARE ([11]; 250 g ai/ha, rating scale 0-100) | phytotoxicity rating ABUTH ([13]; 63 g ai/ha) | phytotoxicity rating ABUTH ([13]; 250 g ai/ha) | Pre-emerge Herbicidal Activity DIGSA ([14]; 250 g ai/ha) | Pre-emerge Herbicidal Activity CHEAL ([15]; 63 g ai/ha) | Pre-emerge Herbicidal Activity CHEAL ([15]; 250 g ai/ha) | Pre-emerge Herbicidal Activity SETVI ([19]; 63 g ai/ha) | Pre-emerge Herbicidal Activity SETVI ([19]; 250 g ai/ha) | Pre-emerge Herbicidal Activity ABUTH ([20]; 250 g ai/ha)
10: Pre-emerge Herbicidal Activity CORN ([4]; 63 g ai/ha)
20: Pre-emerge Herbicidal Activity CORN ([4]; 250 g ai/ha)
95: Pre-emerge Herbicidal Activity DIGSA ([14]; 63 g ai/ha)
40: phytotoxicity rating CORN (crop damage) ([2]; 63 g ai/ha) | phytotoxicity rating DIGSA ([6]; 63 g ai/ha) | phytotoxicity rating DIGSA ([6]; 250 g ai/ha)
60: Pre-emerge Herbicidal Activity RICE ([3]; 250 g ai/ha) | phytotoxicity rating SETVI ([12]; 63 g ai/ha) | Pre-emerge Herbicidal Activity IPOHE ([16]; 63 g ai/ha) | Pre-emerge Herbicidal Activity CASOB ([17]; 250 g ai/ha) | Pre-emerge Herbicidal Activity ECHCG ([18]; 250 g ai/ha)
50: phytotoxicity rating RICE (crop damage) ([1]; 250 g ai/ha) | phytotoxicity rating ECHCG ([10]; 63 g ai/ha) | phytotoxicity rating ECHCG ([10]; 250 g ai/ha) | Pre-emerge Herbicidal Activity IPOHE ([16]; 250 g ai/ha)
90: phytotoxicity rating CASOB ([9]; 63 g ai/ha)
35: phytotoxicity rating RICE (crop damage) ([1]; 63 g ai/ha) | Pre-emerge Herbicidal Activity RICE ([3]; 63 g ai/ha)
